# Assays:
# barnyardgrass = test: Test B preemergence/postemergence greenhouse plant response rating 0 to 10; type: in vivo, Echinochloa crus-galli; conditions: for Plant response rating, Barnyardgrass: 0 to 10 scale
# Summary of the method: (§1)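 Test chemicals, dissolved in a non-phytotoxic solvent, were applied to soil at planting and, at the same time, over foliage of seedlings at the one to four leaf stage.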
# giant foxtail = test: as above; type: in vivo, Setaria faberii; conditions: 0 to 10 scale
# Summary of the method: as §1
# lambsquarters = test: as above; type: in vivo, Chenopodium album; conditions: 0 to 10 scale
# Summary of the method: as §1
# sugar beet = test: as above; type: in vivo, Beta vulgaris; conditions: 0 to 10 scale
# Summary of the method: as §1
# velvetleaf [1] = test: as above; type: in vivo, Abutilon theophrasti; conditions: 0 to 10 scale
# Summary of the method: as §1
# alfalfa = test: Test G preemergence/postemergence greenhouse plant response rating 0 to 100; type: in vivo, Medicago ativa; conditions: 0 to 100 scale
# Description: (§2) Seeds, rhizomes, or plant parts of alfalfa (Medicago ativa), annual bluegrass (Poa annua), bermudagrass (Cynodon dactylon), broadleaf signalgrass (Brachiaria plantaginea), common purslane (Portulaca oleracea), common ragweed (Ambrosia elatior), […] (Paspalum dilatatum), goosegrass (Eleusine indica), guineagrass (Panicum maximum), […] exaltata), johnsongrass (Sorghum halepense), large crabgrass (Digitaria sanguinalis), peanut (Arachis hypoagaea), pitted morningglory (Ipomoea lacunosa), purple nutsedge (Cyperus rotundus), sandbur (Cenchrus echinatus), smooth crabgrass (Digitaria ischaemum) and yellow nutsedge (Cyperus esculentus) were planted into greenhouse pots containing greenhouse planting medium. Each pot contained only one plant species. The test compound was dissolved in a non-phytotoxic solvent and applied preemergence and/or postemergence to the plants. Preemergence applications were made within one day of planting the seeds or plant parts. Postemergence applications were applied when the plants were in the two to four leaf stage (three to twenty cm). Test chemicals were dissolved in a non-phytotoxic solvent and applied preemergence and postemergence to the plants. Untreated control plants and treated plants were placed in the greenhouse and visually evaluated for injury at 13 to 21 days after herbicide application. […] A dash (-) response indicates no test result.
# purple nutsedge = test: as above; type: in vivo, Cyperus rotundus; conditions: Rate 125 g/ha, 0 to 100 scale
# Description: as §2
# cotton = test: Test C preemergence/postemergence greenhouse plant response rating 0 to 100; type: in vivo, Gossypium hirsutum; conditions: POSTEMERGENCE; for Plant response rating, Cotton: 0 to 100 scale
# Summary of the method: (§3)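 Compounds in non-phytotoxic solvent went onto sandy loam before emergence (seeded one day earlier) or onto plants at the one-to-four leaf stage. Duck salad was treated via flood water (~2.5 cm, maintained) over silt loam.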
# crabgrass = test: as above; type: in vivo, Digitaria sanguinalis; conditions: POSTEMERGENCE; for Plant response rating, Crabgrass: 0 to 100 scale
# Summary of the method: as §3
# pigweed = test: as above; type: in vivo, Amaranthusretroflexus; conditions: POSTEMERGENCE; for Plant response rating Pigweed: 0 to 100 scale
# Summary of the method: as §3
# sorghum = test: as above; type: in vivo, Sorghum bicolor; conditions: POSTEMERGENCE; for Plant response rating, Sorghum: 0 to 100 scale
# Summary of the method: as §3
# velvetleaf [2] = test: as above; type: in vivo, Abutilon theophrasti; conditions: POSTEMERGENCE; for Plant response rating, Velvetleaf: 0 to 100 scale
# Summary of the method: as §3
# wild oat = test: as above; type: in vivo, Avena fatua; conditions: POSTEMERGENCE; for Plant response rating, Wild oat: 0 to 100 scale
# Summary of the method: as §3
# rice = test: Test C flood test plant response rating 0 to 100; type: in vivo, Oryza sativa; conditions: for Plant response rating (0 to 100), Rice Japonica: under POSTEMERGENCE head (flood test species); for Plant response rating Rice Japonica: flood test species listed under POSTEMERGENCE, 0 to 100 scale
# Summary of the method: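 Compounds in non-phytotoxic solvent applied preemergence to sandy loam one day after planting, postemergence at the 1–4 leaf stage, or to ~2.5 cm floodwater over silt loam.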
smiles,measurement,setting,value
Fc1cc(Cl)c(OCc2ccccc2)cc1-c1nn2c(c1Cl)CCCC2 [Compound 22],"Plant response rating (0 to 10 scale), Barnyardgrass","barnyardgrass; POSTEMERGENCE, Rate 50 g/ha",3
same,"Plant response rating, Barnyardgrass","barnyardgrass; POSTEMERGENCE, Rate 200 g/ha",5
same,"Plant response rating, Barnyardgrass","barnyardgrass; PREEMERGENCE, Rate 50 g/ha",2
same,"Plant response rating, Barnyardgrass","barnyardgrass; Rate 200 g/ha, PREEMERGENCE",5
same,"Plant response rating, Giant foxtail","giant foxtail; POSTEMERGENCE, Rate 50 g/ha",3
same,"Plant response rating, Giant foxtail","giant foxtail; POSTEMERGENCE, Rate 200 g/ha",4
same,"Plant response rating, Giant foxtail","giant foxtail; PREEMERGENCE, Rate 50 g/ha",3
same,"Plant response rating, Giant foxtail","giant foxtail; Rate 200 g/ha, PREEMERGENCE",9
same,"Plant response rating, Lambsquarter","lambsquarters; POSTEMERGENCE, Rate 50 g/ha",8
same,"Plant response rating, Lambsquarter","lambsquarters; POSTEMERGENCE, Rate 200 g/ha",10
same,"Plant response rating, Lambsquarter","lambsquarters; PREEMERGENCE, Rate 50 g/ha",6
same,"Plant response rating, Lambsquarter","lambsquarters; Rate 200 g/ha, PREEMERGENCE",9
same,"Plant response rating, Sugar beet","sugar beet; POSTEMERGENCE, Rate 50 g/ha",9
same,"Plant response rating, Sugar beet","sugar beet; POSTEMERGENCE, Rate 200 g/ha",6
same,"Plant response rating, Sugar beet","sugar beet; PREEMERGENCE, Rate 50 g/ha",1
same,"Plant response rating, Sugar beet","sugar beet; Rate 200 g/ha, PREEMERGENCE",9
same,"Plant response rating, Velvetleaf","velvetleaf [1]; POSTEMERGENCE, Rate 50 g/ha",6
same,"Plant response rating, Velvetleaf","velvetleaf [1]; POSTEMERGENCE, Rate 200 g/ha",9
same,"Plant response rating, Velvetleaf","velvetleaf [1]; PREEMERGENCE, Rate 50 g/ha",4
same,"Plant response rating, Velvetleaf","velvetleaf [1]; Rate 200 g/ha, PREEMERGENCE",5
same,"Plant response rating, Alfalfa Var.","alfalfa; POSTEMERGENCE, Rate 125 g/ha",0
same,"Plant response rating, Alfalfa Var.","alfalfa; POSTEMERGENCE, Rate 250 g/ha",0
same,"Plant response rating, Alfalfa Var.","alfalfa; PREEMERGENCE, Rate 125 g/ha",0
same,"Plant response rating, Alfalfa Var.","alfalfa; PREEMERGENCE, Rate 250 g/ha",0
same,"Plant response rating, Purple Nutsedge",purple nutsedge; POSTEMERGENCE,0
same,"Plant response rating, Purple Nutsedge",purple nutsedge; PREEMERGENCE,0
C=C(Cl)COc1cc(-c2nn3c(c2Cl)CCCC3)c(F)cc1Cl [Compound 40],"Plant response rating, Barnyardgrass","barnyardgrass; POSTEMERGENCE, Rate 50 g/ha",4
same,"Plant response rating, Barnyardgrass","barnyardgrass; POSTEMERGENCE, Rate 200 g/ha",4
same,"Plant response rating, Barnyardgrass","barnyardgrass; PREEMERGENCE, Rate 50 g/ha",1
same,"Plant response rating, Barnyardgrass","barnyardgrass; Rate 200 g/ha, PREEMERGENCE",3
same,"Plant response rating, Giant foxtail","giant foxtail; POSTEMERGENCE, Rate 50 g/ha",5
same,"Plant response rating, Giant foxtail","giant foxtail; PREEMERGENCE, Rate 50 g/ha",9
same,"Plant response rating, Giant foxtail","giant foxtail; Rate 200 g/ha, POSTEMERGENCE",6
same,"Plant response rating, Giant foxtail","giant foxtail; Rate 200 g/ha, PREEMERGENCE",9
same,"Plant response rating, Lambsquarter","lambsquarters; POSTEMERGENCE, Rate 50 g/ha",9
same,"Plant response rating, Lambsquarter","lambsquarters; PREEMERGENCE, Rate 50 g/ha",10
same,"Plant response rating, Lambsquarter","lambsquarters; Rate 200 g/ha, POSTEMERGENCE",10
same,"Plant response rating, Lambsquarter","lambsquarters; Rate 200 g/ha, PREEMERGENCE",10
same,"Plant response rating, Sugar beet","sugar beet; POSTEMERGENCE, Rate 50 g/ha",10
same,"Plant response rating, Sugar beet","sugar beet; PREEMERGENCE, Rate 50 g/ha",9
same,"Plant response rating, Sugar beet","sugar beet; Rate 200 g/ha, POSTEMERGENCE",10
same,"Plant response rating, Sugar beet","sugar beet; Rate 200 g/ha, PREEMERGENCE",9
same,"Plant response rating, Velvetleaf","velvetleaf [1]; POSTEMERGENCE, Rate 50 g/ha",2
same,"Plant response rating, Velvetleaf","velvetleaf [1]; PREEMERGENCE, Rate 50 g/ha",2
same,"Plant response rating, Velvetleaf","velvetleaf [1]; Rate 200 g/ha, POSTEMERGENCE",10
same,"Plant response rating, Velvetleaf","velvetleaf [1]; Rate 200 g/ha, PREEMERGENCE",8
same,"Plant response rating, Cotton",cotton; 62 g/ha,100
same,"Plant response rating, Cotton",cotton; 125 g/ha,100
same,"Plant response rating (0 to 100), Cotton",cotton; Rate 16 g/ha,100
same,"Plant response rating (0 to 100), Cotton",cotton; Rate 31 g/ha,100
same,"Plant response rating, Crabgrass",crabgrass; 62 g/ha,10
same,"Plant response rating, Crabgrass",crabgrass; 125 g/ha,10
same,"Plant response rating (0 to 100), Crabgrass",crabgrass; Rate 16 g/ha,10
same,"Plant response rating (0 to 100), Crabgrass",crabgrass; Rate 31 g/ha,10
same,Plant response rating Pigweed,pigweed; 62 g/ha,100
same,Plant response rating Pigweed,pigweed; 125 g/ha,100
same,"Plant response rating (0 to 100), Pigweed",pigweed; Rate 16 g/ha,90
same,"Plant response rating (0 to 100), Pigweed",pigweed; Rate 31 g/ha,95
same,"Plant response rating, Sorghum",sorghum; 62 g/ha,30
same,"Plant response rating, Sorghum",sorghum; 125 g/ha,50
same,"Plant response rating (0 to 100), Sorghum",sorghum; Rate 16 g/ha,20
same,"Plant response rating (0 to 100), Sorghum",sorghum; Rate 31 g/ha,20
same,"Plant response rating, Velvetleaf",velvetleaf [2]; 62 g/ha,100
same,"Plant response rating, Velvetleaf",velvetleaf [2]; 125 g/ha,100
same,"Plant response rating (0 to 100), Velvetleaf",velvetleaf [2]; Rate 16 g/ha,90
same,"Plant response rating (0 to 100), Velvetleaf",velvetleaf [2]; Rate 31 g/ha,90
same,"Plant response rating, Wild oat",wild oat; 62 g/ha,30
same,"Plant response rating, Wild oat",wild oat; 125 g/ha,40
same,"Plant response rating (0 to 100), Wild oat",wild oat; Rate 16 g/ha,20
same,"Plant response rating (0 to 100), Wild oat",wild oat; Rate 31 g/ha,20
same,"Plant response rating (0 to 100), Rice Japonica",rice; Rate 16 g/ha,35
same,"Plant response rating (0 to 100), Rice Japonica",rice; Rate 31 g/ha,35
same,Plant response rating Rice Japonica,rice; 62 g/ha,40
same,Plant response rating Rice Japonica,rice; 125 g/ha,40
